Here are results for four compounds from patent US20200010814A1, “NOVEL MONOOXYGENASE AND UTILIZATION THEREOF” (KANEKA CORPORATION, priority 2017, published 2020).

For this experiment, the system named is pQAH1/pRAT1 Rhodococcus erythropolis L88. Briefly: Evaluation of substrate specificity. Particulars: 10 mM substrate, 5% glucose, 26 hours of reaction; NMR and optical rotation analyses. Type of experiment: cell-based. The protocol:
pQAH1/pRAT1 Rhodococcus erythropolis L88 was cultured in an LB medium by a method similar to that for Example 5. Expression of a protein was induced with 0.2 μg/ml of thiostrepton, and then 10 mM of each of L-isovaline, D-isovaline, L-aminobutyrate, and D-aminobutyrate was added together with 5% glucose. After 26 hours of reaction, the reaction supernatant was analyzed by the LCMS analysis method used for Example 1.
As for `CC[C@](C)(N)C(=O)O` [L-isovaline], the “product of the hydroxylation reaction of the substrate” value (from here on “product”) is “(2S,3S)-2-methyl threonine”.

For the compound `CC[C@@H](N)C(=O)O` [D-aminobutyrate], the “product” value is on record as “D-allo-threonine”.

As for `CC[C@@](C)(N)C(=O)O` [D-isovaline], the “product” value is “(2R,3R)-2-methyl threonine”.

`CC[C@H](N)C(=O)O` [L-aminobutyrate]: the “product” value was “L-allo-threonine”.
